Laboratory results as given in patent US20250099427A1, “Drug and Method of Treating or Preventing Renal Disease Using Drug” (Showa University, priority 2018, published 2025).

Experiments:
[1] = tested on: Chronic Renal Failure Animal Model; assay: Test using chronic renal failure animal model (nephrectomy + acetic acid application), renal function parameters; format: in vivo, mouse; conditions: mean±standard error; for Urinary output / Urinary protein: 24 h urine 12 weeks after acetic acid; for BUN / sCr: evaluated 12 weeks after acetic acid; for Ccr: creatinine clearance, 12 weeks after acetic acid
Protocol: A male ddY strain mouse (body weight: 30 g to 40 g) was used. Under anesthesia with isoflurane, the right flank of the mouse was incised, the renal arteries and veins were ligated, and then the right kidney was isolated. After suturing, acrinol was applied to the suture site as a disinfection treatment, and enrofloxacin was subcutaneously administered at 5 mg/kg as a preventive measure against infection, and acetaminophen was subcutaneously administered at 75 mg/kg as an analgesic treatment. After a recovery period of 3 to 4 weeks, the left abdomen of the mouse was incised, 100% acetic acid was applied to both sides of the kidney 10 times. This was defined as one course, and two courses were conducted at 5 minute intervals. After suturing, postoperative treatment was conducted in the same manner as in the removal of one of the kidneys. Considering the effect of surgery, a sham group to which acetic acid was not applied was provided.
4 weeks after the application of acetic acid, SMTP-7 was administered at a dose of 10 mg/kg or 30 mg/kg. The administration was carried out three times a week for 8 consecutive weeks by intraperitoneal administration. In addition, physiological saline was similarly administered to the sham group (without acetic acid application) and the Control group (with acetic acid application).
12 weeks after the application of acetic acid, urine was collected for 24 hours using a metabolic cage, and the urinary output was measured. During collecting urine, water was freely given. After urine collection, blood was collected from the descending aorta, the collected blood was centrifuged at 3000 rpm for 15 minutes, serum was separated, and BUN (urea nitrogen) and sCr (serum creatinine value) were measured. Further, protein and creatinine in the urine were also measured to calculate creatinine clearance (Ccr). BUN was measured using Urea B-test Wako (manufactured by Wako Pure Chemical Industries, Ltd.) and a QuantiChrom Urea Assay Kit (manufactured by Funakoshi Co., Ltd.), sCr was measured using Lab Assay Creatinine (manufactured by Wako Pure Chemical Industries, Ltd.), and urinary protein was measured using a BCA Protein assay kit (Thermo Fisher Scientific).
Renal function was evaluated by measuring BUN, sCr, urinary output, and urinary protein. In addition, urinary creatinine was measured to calculate creatinine clearance (Ccr).
In Table 9, the experimental results are expressed in mean±standard error. With reference to statistically significant difference, an unpaired test between two groups (Student's t-test) was conducted for comparison between two groups, and one-way analysis of variance was conducted and then a Dunnett test was conducted for comparison among multiple groups. In all cases, a significance level of 5% or less (P<0.05) was regarded as significant difference.
The experiment and evaluation were carried out in the same manner as in the SMTP-7 (30 mg/kg) administration group, except that edaravone (30 mg/kg) was administered instead of SMTP-7 in the SMTP-7 (30 mg/kg) administration group.

[2] = tested on: Acute Renal Failure Animal Model; assay: Test using acute renal failure animal model (renal ischemia and reperfusion), renal function parameters; format: in vivo, mouse; conditions: for Cer: creatinine clearance; for FENa: fractional excretion of sodium; for KW: kidney weight
From the text: A male ddY strain mouse (30 g) was used as an experimental animal. Under anesthesia with isoflurane, the right flank was incised about 2 cm to expose the kidney. After ligating the renal arteries and veins and the ureter, the right kidney was isolated.
A recovery period of 2 weeks was given, and then an acute renal failure mouse model was produced. Under anesthesia with isoflurane, the left abdomen was incised about 3 cm to expose the left kidney, and the fat around the renal arteries and veins was removed. The blood flow in the left renal arteries and veins was blocked using an atraumatic clip, and the kidney was left in ischemia for 45 minutes. The blood flow was then reperfused by removing the atraumatic clip, the kidney was returned to the abdominal cavity, and the flank was sutured. Mice similarly subjected to the steps other than the ischemia and reperfusion steps using the atraumatic clip were designated as a sham group (eight mice).
After 15 minutes of the initiation of ischemia, the vehicle, SMTP-7, SMTP-27, SMTP-44D, and edaravone were continuously administered to the femoral vein for 30 minutes.
24 hours after the ischemia and reperfusion processes, urine was collected for 24 hours using a metabolic cage, and the urinary output (UF; μL/min/kg) was measured. During collecting urine, only water was freely given. After urine collection, the body weight of each mouse was measured, and blood was collected from the abdominal aorta under anesthesia with isoflurane. After blood collection, the left kidney was isolated and the fat was removed in physiological saline. The kidney weight (KW; mg/g) was measured, and then the kidney was fixed in a 10% neutral buffered formalin solution for Hematoxylin Eosin (HE) staining.
The collected blood was centrifuged at 800×g for 15 minutes at 25° C. to collect serum. Further, the urine collected using a metabolic cage was also used to evaluate renal function. In order to evaluate parameters in the serum, blood urea nitrogen (BUN; mg/dL) was measured using a QuantiChrom Urea Assay Kit (Funakoshi Co., Ltd.). Serum creatinine concentration (Scr; mg/dL) and urinary creatinine concentration (Ucr; mg/dL) were measured using LabAssay (trademark) Creatinine (manufactured by Wako Pure Chemical Industries, Ltd.), and creatinine clearance (Ccr; mL/min/kg) was calculated. The concentrations of sodium in the serum and urine were measured using Fuji Dry Chem 7000 (manufactured by FUJIFILM Corporation), and fractional excretion of sodium (FENa; %) was calculated. Urinary albumin concentration (Ualb; mg/hr/kg) was measured using Albwel M (manufactured by Cosmo Bio Co., Ltd.).
In Table 11, the experimental results are expressed in mean±standard error in eight mice in each group. For comparison among multiple groups, firstly, one-way analysis of variance (ANOVA) was conducted, and then a Bonferroni test was conducted, if significant difference was recognized. Significant difference was recognized with a significance level of less than 5% (P<0.05).

[3] = 10 mg/kg intraperitoneal three times a week for 8 weeks from 4 weeks after acetic acid
[4] = 30 mg/kg intraperitoneal three times a week for 8 weeks from 4 weeks after acetic acid
[5] = 0.01 mg/kg continuous femoral vein 30 min from 15 min after start of 45 min ischemia, mean±SE, 8 mice
[6] = 0.1 mg/kg continuous femoral vein 30 min from 15 min after start of 45 min ischemia, mean±SE, 8 mice
[7] = 0.1 mg/kg, acute renal failure model
[8] = 1 mg/kg continuous femoral vein 30 min from 15 min after start of 45 min ischemia, mean±SE, 8 mice
[9] = 1 mg/kg, acute renal failure model
[10] = 10 mg/kg continuous femoral vein 30 min from 15 min after start of 45 min ischemia, mean±SE, 8 mice
[11] = 0.01 mg/kg continuous femoral vein 30 min from 15 min after start of 45 min ischemia, mean±SE, 8 mice, 0.01 mg/kg
[12] = 0.1 mg/kg continuous femoral vein 30 min from 15 min after start of 45 min ischemia, mean±SE, 8 mice, 0.1 mg/kg
[13] = 1 mg/kg continuous femoral vein 30 min from 15 min after start of 45 min ischemia, mean±SE, 8 mice, 1 mg/kg
[14] = 10 mg/kg continuous femoral vein 30 min from 15 min after start of 45 min ischemia, mean±SE, 8 mice, 10 mg/kg

Compound CC(C)=CCC/C(C)=C/CC[C@@]1(C)Oc2c(c(O)cc3c2CN(CCC[C@@H](C(=O)O)N2Cc4c(cc(O)c5c4O[C@](C)(CC/C=C(\C)CCC=C(C)C)[C@@H](O)C5)C2=O)C3=O)C[C@@H]1O [SMTP-7] has a Urinary output [1, 3] of 142 ± 31.7 mL/kg/day, a Urinary protein [1, 3] of 968 ± 137 mg/kg/day and a BUN [1, 3] of 80.5 ± 13.3 mg/dL. For the same compound, the sCr [1, 3] was 0.71 ± 0.07 mg/dL, the Urinary output [1, 4] was 77.3 ± 18.5 mL/kg/day and the Urinary protein [1, 4] was 527 ± 96.2 mg/kg/day. It also gave a BUN [1, 4] of 55.1 ± 1.57 mg/dL, a sCr [1, 4] of 0.60 ± 0.05 mg/dL and a Ccr [1, 3] of 1.95 ± 0.23 mL/min/kg. It also gave a Ccr ([1]; 30 mg/kg intraperitoneal three times a week for 8 weeks from 4 weeks after acetic acid, 30 mg/kg) of 2.66 ± 0.37 mL/min/kg, a BUN [2, 5] of 108.8 ± 26.6 mg/dL and a Scr [2, 5] of 0.9 ± 0.2 mg/dL. For the same compound, the Ualb ([2]; 0.01 mg/kg, acute renal failure model) was 1.8 ± 0.3 mg/h/kg, the BUN [2, 6] was 125.8 ± 28.7 mg/dL and the Scr [2, 6] was 1.0 ± 0.3 mg/dL. It also gave a UF [2, 7] of 82.5 ± 8.8 µL/min/kg, a Ualb [2, 7] of 1.1 ± 0.3 mg/h/kg and a BUN [2, 8] of 66.0 ± 11.3 mg/dL. The Scr [2, 8] was 0.5 ± 0.1 mg/dL, the UF [2, 9] was 62.3 ± 13.4 µL/min/kg and the Ualb [2, 9] was 0.7 ± 0.2 mg/h/kg. It also gave a BUN [2, 10] of 44.1 ± 2.9 mg/dL, a Scr [2, 10] of 0.4 ± 0.0 mg/dL and a Ualb ([2]; 10 mg/kg, acute renal failure model) of 0.5 ± 0.1 mg/h/kg. It also gave a Cer [2, 11] of 1.6 ± 0.3 mL/min/kg, a Cer [2, 12] of 1.7 ± 0.4 mL/min/kg and a Cer [2, 13] of 2.3 ± 0.4 mL/min/kg. For the same compound, the Cer [2, 14] was 3.1 ± 0.2 mL/min/kg, the FENa [2, 11] was 1.8±0.8% and the FENa [2, 12] was 2.3±1.0%. The FENa [2, 13] was 1.0±0.2%, the FENa [2, 14] was 0.7±0.1% and the KW [2, 11] was 14.5 ± 0.6 mg/g. For the same compound, the KW [2, 12] was 13.6 ± 1.0 mg/g, the KW [2, 13] was 11.2 ± 0.8 mg/g and the KW [2, 14] was 11.1 ± 0.4 mg/g. It also gave a Ualb ([2]; urinary albumin, 0.01 mg/kg continuous femoral vein 30 min from 15 min after start of 45 min ischemia, mean±SE, 8 mice) of 1.8 ± 0.3 mg/h/kg, a Ualb ([2]; urinary albumin, 0.1 mg/kg continuous femoral vein 30 min from 15 min after start of 45 min ischemia, mean±SE, 8 mice) of 1.1 ± 0.3 mg/h/kg and a Ualb ([2]; urinary albumin, 1 mg/kg continuous femoral vein 30 min from 15 min after start of 45 min ischemia, mean±SE, 8 mice) of 0.7 ± 0.2 mg/h/kg. For the same compound, the Ualb ([2]; urinary albumin, 10 mg/kg continuous femoral vein 30 min from 15 min after start of 45 min ischemia, mean±SE, 8 mice) was 0.5 ± 0.1 mg/h/kg.
